For 1 compound, Km results are on record in paper PMC4926359, “Cloning, Expression and 3D Structure Prediction of Chitinase from Chitinolyticbacter meiyuanensis SYBC-H1” (International Journal of Molecular Sciences, 2016).

The test relates to CHI2 chitinase. The experiment in a line: p-nitrophenol release at […] nm, Lineweaver-Burk. The test is classed as biochemical, Chitinolyticbacter meiyuanensis. The following applies: 50 mM sodium phosphate pH 7.0, 37 °C; substrate range 50-250 μM; unit contradictory in the paper: mM in b32 and b39, µmol/L in abstract b1.

Broadly, the Km is the substrate concentration at which the rate is half of its maximum. On to `CC(=O)N[C@H]1[C@H](Oc2ccc([N+](=O)[O-])cc2)O[C@H](CO)[C@@H](O)[C@@H]1O` [p-NP-GlcNAc], for which the Km is 23 mM.
